Experimental data: US10054581B1, “Inhibitors of notch signaling pathway and use thereof in treatment of cancers” (Ecole Polytechnique Federale de Lausanne (EPFL), priority 2011, dated 2018)
“Also recorded” adds a separate entry of the source.

How the values were obtained:
CUTL1 = assay: Annexin V apoptosis, CUTL1; assay type: cell-based, human; conditions: 10 μM, 7 days
Description: (§1) FIGS. 6A-6D show 6-(4-Tert-Butylphenoxy)Pyridin-3-Amine (I3) induces G0/G1 cell cycle arrest and apoptosis in human T cell acute lymphoblastic leukemia cell lines and human breast cancer cell line HCC1187. […] Percentage of Annexin V positive (apoptotic) cell population was measured using flow cytometry.
To quantitate the percentage of apoptotic cells, AnnexinV and 7AAD staining was performed. Thymic cells were suspended in 300 μl of 1× AnnexinV binding buffer (BD Biosciences, San Diego, USA) and incubated with 10 μl of AnnexinV-Cy5 antibody and 10 μl of 7AAD (BD Biosciences, San Diego, USA). Samples were incubated for 15 minutes at room temperature. FACS was performed with in one hour of antibody staining.
This 6-(4-Tert-Butylphenoxy)Pyridin-3-Amine (I3) mediated proliferative arrest could be due to induction of apoptosis or cell cycle arrest during different phases of cell cycle. […] Therefore to further elucidate the mechanisms responsible for 6-(4-Tert-Butylphenoxy)Pyridin-3-Amine (I3) mediated proliferative arrest cell cycle and apoptosis analyses were carried out. […] To investigate cell death, Annexin V staining was performed and proportion of apoptotic (AnnexinV positive) cell population was determined by flow cytometry analyses after 7 days of treatment.

RPMI8402 = assay: Cell cycle analysis (Ki67 and Hoechst stain), RPMI8402; assay type: cell-based, human; conditions: 10 μM
Description: as §1
(§2) In addition to induction of apoptosis, the proliferative arrest observed in 6-(4-Tert-Butylphenoxy)Pyridin-3-Amine (I3) treated human leukemic cell lines and breast cancer cell line also appears to be due to cell cycle arrest in G0/G1 phase of the cell cycle. Leukemic cell lines (RPMI8402, KOPTK1 and TALL1) and breast cancer cell lines were treated with 6-(4-Tert-Butylphenoxy)Pyridin-3-Amine (I3) for 48 hours and cell cycle status was determined using Ki67 and Hoechst stain.

KOPTK1 = assay: Cell cycle analysis (Ki67 and Hoechst stain), KOPTK1; assay type: cell-based, human; conditions: 10 μM
Description: as §1, §2

HCC1187 = assay: Cell cycle analysis (Ki67 and Hoechst stain), HCC1187; assay type: cell-based, human; conditions: 10 μM, 48 hours
Description: as §1, §2

[1] = tested on: intestinal tissue (goblet cells); assay: Intestinal toxicity in mice (Alcian blue staining for goblet cells); assay type: in vivo, mouse
RPMI 8402 leukemic cells = assay: RPMI 8402 xenotransplantation in NOD/SCID γc−/− mice; assay type: in vivo, human
Description: FIGS. 8A-8B show 6-(4-Tert-Butylphenoxy)Pyridin-3-Amine (I3) treatment increases latency of leukemia development in mice. […] On day 15, leukemic cells were established in the bone marrow. Mice were treated with oil or 6-(4-Tert-Butylphenoxy)Pyridin-3-Amine (I3) for every day. Mice were imaged on day 27 using Caliper IVIS (Xenogen) live imaging system. Red and blue colour indicates the intensity of luciferase signal and correlates with the number of leukemic cells. […] NOD/SCID γc^−/− mice were transplanted with 5×10^5 RPMI 8402 (luciferase expressing) cells. Leukemia development was followed using Caliper IVIS (Xenogen) live imaging system. […]
The human leukemic cell lines RPMI 8402 and HPB ALL were transduced with a lentivirus containing luciferase gene constitutively expressed downstream of a CMV promoter. […] Mice were monitored for tumor development using Caliper IVIS (Xenogen) live imaging system. […]
Similarly in a preliminary experiment, NOD/SCID γc^−/− mice were transplanted with 5×10^5 RPMI 8402 cells and treated with oil or 6-(4-Tert-Butylphenoxy)Pyridin-3-Amine (I3) following the establishment of the disease. […] Since these animals were treated with the chemical compound 6-(4-Tert-Butylphenoxy)Pyridin-3-Amine (I3) for 27 days, the intestinal tissue was analyzed to detect any toxicity in the gut.

[2] = stated jointly for RPMI8402, KOPTK1 and TALL1

CC(C)(C)c1ccc(Oc2ccc(N)cn2)cc1 [I3, 6-(4-Tert-Butylphenoxy)Pyridin-3-Amine]
apoptosis (Annexin V positive cells) (CUTL1): induces significant apoptosis | cell cycle status (RPMI8402; 48 hours): induces an arrest in the G0/G1 phase of the cell cycle | increase in cells arrested in G0/G1 phase of the cell cycle (RPMI8402; [2]): 20-30% | cell cycle status (KOPTK1; 48 hours): induces an arrest in the G0/G1 phase of the cell cycle | increase in cells arrested in G0/G1 phase of the cell cycle (KOPTK1; [2]): 20-30% | cell cycle status (HCC1187): induces an arrest in the G0/G1 phase of the cell cycle | intestinal architecture / goblet cell metaplasia ([1]; C57B16 mice, 25 mg/kg i.p., 7 consecutive days, analysed day 8, 25 mg/kg): completely normal with intact architecture and no indication of goblet cell metaplasia; also recorded: did not perturb intestinal homeostasis and without any indication of goblet cell accumulation | goblet cell numbers and intestinal architecture ([1]; NOD/SCID γc−/− mice with RPMI 8402 xenotransplant, treated for 27 days): did not reveal any abnormality in the goblet cell numbers and intestinal architecture | leukemia development (luciferase live imaging) (RPMI 8402 leukemic cells; 5×10^5 cells, daily treatment for 27 days after establishment of disease, preliminary experiment): blocks RPMI 8402 leukemic cell growth in xenotransplantation assay | metastatic lesions in the liver (histology) (RPMI 8402 leukemic cells; daily treatment for 27 days): did not develop any metastatic lesions in the liver
